Results on 11 molecules are retold here after article PMC7115498 (European Journal of Medicinal Chemistry, 2009).

Values after ≈ are worked out from the molar mass of the structure shown. Read-outs that look alike come from different tables or passages of the source.

For one data set, the system named is Parainfluenza-3 virus. Nature of the data set: organism not typed. Type of data set: cell-based. The conditions noted are these: Vero.
The next data set concerns Reovirus-1. Nature of the data set: organism not typed. Format: cell-based. The settings on record: Vero.
In the next data set the test system is Coxsakie virus B4. Put plainly: organism not typed. The settings on record: Vero. Type of data set: cell-based.
Data set [1] deals with Herpes simplex virus-1TK- KOS ACV. Nature of the data set: organism not typed. Type of data set: cell-based. The conditions noted are these: HEL.
The next data set deals with HIV-1 IIIB strain. Type of data set: cell-based. The conditions noted are these: for IC50: MTT method, Exp_nr P3.4401 and P3.4406.
For the next data set, the system named is HIV-1 ROD strain. Format: cell-based. The conditions noted are these: for IC50: MTT method, Exp_nr P3.4402 and P3.4407. In general terms: Formazan colour is commonly taken as a measure of viable cells.
The test system of the next data set is MT-4 cells. The settings on record: MTT method.
Data set [2] can be described thus: in vitro. The settings on record: human, CC50, MT-4 cells, MTT method; IIIB experiments P3.4401 and P3.4406.
Data set [3] in a line: Partition coefficient by stir-flask method, octanol-water system. The settings on record: octanol / 0.1 NaOH solution, 25 °C, UV.
In the next data set the test system is E. coli. Nature of the data set: Antibacterial microdilution broth susceptibility test. Format: cell-based, Escherichia coli. The settings on record: 24 h, Gram-negative E. coli, 37 °C, no turbidity. Background: Dilution methods test growth across graded concentrations, often in twofold steps.
For the next data set, the system named is HPV. The conditions noted are these: ref Singh et al. unpublished results; cited from earlier work.
For data set [4], the system named is Gram-positive cocci and Gram-negative bacilli. Nature of the data set: Antibacterial activity over all strains tested. Type of data set: cell-based. The settings on record: in vitro.
The nature of data set [5]: in vitro. The settings on record: African green monkey, CC50, Vero cells, MTS assay.
The test system of the next data set is S. viridans. Nature of the data set: Antibacterial microdilution broth susceptibility test. Format: cell-based, Streptococcus viridans. The conditions noted are these: Gram-positive S. viridans; 37 °C, 24 h, no turbidity.
The next data set relates to K. pneumoniae. Described as above. Format: cell-based, Klebsiella pneumoniae. The settings on record: Gram-negative K. pneumoniae; 37 °C, 24 h, no turbidity.
The subject of another data set is P. miraleilis. Described as above. Format: cell-based, Proteus mirabeilis. The settings on record: Gram-negative P. miraleilis; 37 °C, 24 h, no turbidity.
Data set [6] deals with Feline corona virus (FIPV). Format: cell-based. The conditions noted are these: virus N, CRFK cells, MTS assay.
The next data set deals with Feline herpes virus. Type of data set: cell-based. The conditions noted are these: virus O, CRFK cells, MTS assay.
The next data set concerns CRFK cells. The conditions noted are these: MTS assay.
The mark [7] stands for this setting: ROD experiments P3.4402 and P3.4407.

As a reminder, the EC50 is the concentration needed to bring the measured effect to its halfway point. A high value points to a need for much substance. For `Nc1ncnc2c1ncn2C[C@H](O)CO` [(S)-DHPA, reference compound], the EC50 with Parainfluenza-3 virus, with Reovirus-1 and in the data set on Coxsakie virus B4 was greater than 250000 nM in each case.

By IC50 is commonly meant the midpoint of a concentration-inhibition curve. For orientation: CC50 means the concentration giving 50% cytotoxicity. High values mean lower toxicity to the cells, low ones greater toxicity to the cells. Take `COc1cc(/C=C/C(=O)CC(=O)/C=C/c2ccc(OC(=O)[C@H](Cc3ccccc3)NC(=O)[C@@H](N)Cc3c[nH]c4ccccc34)c(OC)c2)ccc1OC(=O)[C@H](Cc1ccccc1)NC(=O)[C@@H](N)Cc1c[nH]c2ccccc12` [Compound 2, 1,7-Bis-[(4,4-di-O-tryptophanylphenylalanine)3-methoxyphenyl]-1,6-heptadiene-3,5-dione]: the EC50 in [1] was greater than 38 nM; with Parainfluenza-3 virus, greater than 38 nM; with Reovirus-1 it was greater than 19 nM; in the data set with Coxsakie virus B4, greater than 19 nM. The “SI (Selectivity index: CC50/IC50 ratio)” value in the data set with HIV-1 IIIB strain and in the data set with HIV-1 ROD strain was less than 1 in each case. The half-maximal inhibitory concentration (IC50) in the data set on HIV-1 IIIB strain (HIV-1 IIIB, MT-4 cells) was greater than 93 nM; in the data set on HIV-1 ROD strain (HIV-1 ROD, MT-4 cells), greater than 103 nM. The 50% cytotoxic concentration (CC50) is 103 nM with MT-4 cells (setting [7]) and 94 nM in “in vitro [2]”. Besides, in data set [3], the “P (partition coefficient), stir-flask method” value (“P (partition coefficient)” below) is 5.50 × 10^2.

For orientation: MIC means the smallest concentration in the dilution series that meets the test's criterion for growth inhibition. A low value points to inhibition by little substance. For the molecule `CCCCCCCCCC(=O)Oc1ccc(/C=C/C(=O)CC(=O)/C=C/c2ccc(OC(=O)CCCCCCCCC)c(OC)c2)cc1OC` [Compound 3, 1,7-Bis-[(4,4-di-O-decanoyl)3-methoxyphenyl]-1,6-heptadiene-3,5-dione], the MIC with E. coli (Escherichia coli) came to 0.369 µM (≈ 0.25 µg/mL). For the same molecule, the “P (partition coefficient)” value in data set [3] is given as 1.69 × 10^8.

Take `CCCCCCCCCCCCCCCC(=O)Oc1ccc(/C=C/C(=O)CC(=O)/C=C/c2ccc(OC(=O)CCCCCCCCCCCCCCC)c(OC)c2)cc1OC` [Compound 4, 1,7-Bis-[(4,4-di-O-pamitoyl)3-methoxyphenyl]-1,6-heptadiene-3,5-dione]: in the data set with E. coli (Escherichia coli), the MIC turned out to be 0.591 µM (≈ 0.5 µg/mL).

For the molecule `COc1cc(/C=C/C(=O)CC(=O)/C=C/c2ccc(OC(=O)CCC(NC(=O)c3ccc(NCc4cnc5nc(N)[nH]c(=O)c5n4)cc3)C(=O)O)c(OC)c2)ccc1OC(=O)CCC(NC(=O)c1ccc(NCc2cnc3nc(N)[nH]c(=O)c3n2)cc1)C(=O)O` (stereo not drawn) [Compound 6, 1,7-Bis-[(4,4-di-O-bis-(γ,γ)-folyl)3-methoxyphenyl]-1,6-heptadiene-3,5-dione], the concentration giving a half-maximal response (EC50) (in data set [1]; in the data set with Parainfluenza-3 virus; in the data set on Reovirus-1; in the data set on Coxsakie virus B4) was greater than 82 nM in each case. The IC50 with HIV-1 IIIB strain (HIV-1 IIIB, MT-4 cells) is greater than 46 nM; in the data set with HIV-1 ROD strain (HIV-1 ROD, MT-4 cells), greater than 50 nM. The molecule further registered a CC50 in the data set on MT-4 cells (setting [7]) of 50 nM. Also, in the data set on HPV, the “Activity against HPV causing cervical cancer” value is listed as “very active”.

As to `COc1cc(/C=C/C(=O)C(CCOC(=O)CCC(NC(=O)c2ccc(NCc3cnc4nc(N)[nH]c(=O)c4n3)cc2)C(=O)O)C(=O)/C=C/c2ccc(O)c(OC)c2)ccc1O` (stereo not drawn) [Compound 8, 1,7-Bis-[(4-hydroxy-3-methoxyphenyl)]-1,6-heptadiene-C^4-ethyl-O-folyl-3,5-dione], the EC50 (in [1]; with Parainfluenza-3 virus; in the data set on Reovirus-1; in the data set with Coxsakie virus B4) was greater than 11 nM in each case. Also, in the data set on HIV-1 ROD strain (HIV-1 ROD, MT-4 cells), the IC50 was greater than 62 nM. The CC50 in the data set on MT-4 cells (setting [7]) came to 62 nM.

`COc1cc(/C=C/C(=O)CC(=O)/C=C/c2ccc(OCCOC(=O)CCC(NC(=O)c3ccc(NCc4cnc5nc(N)[nH]c(=O)c5n4)cc3)C(=O)O)c(OC)c2)ccc1O` (stereo not drawn) [Compound 10, 1-(4-Hydroxy-3-methoxyphenyl)-7-(4-O-ethyl-O-folyl-3-methoxyphenyl)-1,6-heptadiene-3,5-dione]: the EC50 (in data set [1]; in the data set on Parainfluenza-3 virus; with Reovirus-1; in the data set on Coxsakie virus B4) was greater than 119 nM throughout. Moreover, the “SI (Selectivity index: CC50/IC50 ratio)” value in the data set on HIV-1 IIIB strain (HIV-1 IIIB, MT-4 cells) was less than 1; with HIV-1 ROD strain (HIV-1 ROD, MT-4 cells), less than 1. The IC50 in the data set with HIV-1 IIIB strain (HIV-1 IIIB, MT-4 cells) was greater than 58 nM; in the data set with HIV-1 ROD strain (HIV-1 ROD, MT-4 cells), greater than 88 nM. Moreover, the CC50 in the data set on MT-4 cells (IIIB experiments P3.4401 and P3.4406) was 58 nM; with MT-4 cells (setting [7]), 88 nM.

In the case of `COc1cc(/C=C/C(=O)CC(=O)/C=C/c2ccc(O)c(OC)c2)ccc1O` [Curcumin, 1,7-bis(4-hydroxy-3-methoxyphenyl)-1,6-heptadiene-3,5-dione, reference compound], the “MIC range over all strains” value in [4] was in the range of 1.23 to 2.47 µM. In addition, the EC50 with Parainfluenza-3 virus, with Reovirus-1 and in the data set on Coxsakie virus B4 was greater than 10 nM each time. For the same molecule, in data set [3], the “P (partition coefficient)” value is recorded as 1.70 × 10^2.

In the case of `NC(=O)c1ncn([C@@H]2O[C@H](CO)[C@@H](O)[C@H]2O)n1` [Ribavirin], the 50% effective concentration (EC50) in the data set with Reovirus-1 was 250000 nM; in the data set on Coxsakie virus B4, greater than 250000 nM. Moreover, the cytotoxic concentration (CC50) in “in vitro [5]” (column J (Reovirus-1)), in the data set “in vitro [5]” (column K (Sindbis virus)), in the data set “in vitro [5]” (column L (Coxsakie virus B4)) and in “in vitro [5]” (column M (Punta toro virus)) was greater than 250000 nM throughout.

Consider Gentamycin sulfate, for which the MIC with S. viridans, against E. coli, in the data set on K. pneumoniae and in the data set with P. miraleilis was greater than 1.73 µM each time.

B1: UDA: reference in Table 2 (CRFK), not defined in the paper; presumably a plant lectin (protein, UniProt P11218 24-372, looked up)
Lectin/endochitinase 1: QRCGSQGGGGTCPALWCCSIWGWCGDSEPYCGRTCENKCWSGERSDHRCGAAVGNPPCGQDRCCSVHGWCGGGNDYCSGSKCQYRCSSSVRGPRVALSGNSTANSIGNVVVTEPLFDQMFSHRKDCPSQGFYSYHSFLVAAESFPAFGTIGDVATRKREVAAFLAHISQATSGERSDVENPHAWGLCHINTTTVTENDFCTSSDWPCAAGKKYSPRGPIQLTHNFNYGLAGQAIGEDLIQNPDLVEKDPIISFKTALWFWMSQHDNKPSCHDIVLNANSAANRIPNKGVIGNIISRAFGHDDFAVRSSSIGFYKRYCDMLGVSYGHDLKYWFDNTPSSEFQRIQMRVAA
In the case of B1, the concentration for a half-maximal effect (EC50) in data set [6] turned out to be 1300 nM; in the data set on Feline herpes virus, 2900 nM. The CC50 in the data set on CRFK cells (column N (Feline corona virus FIPV)) and in the data set on CRFK cells (column O (Feline herpes virus)) was greater than 100000 nM each time.
